Test results published in paper PMC7802075 (ACS Infectious Diseases, 2020).

Each compound was assayed against T1, LmjIPCS (inositol phosphorylceramide synthase from L. major) (Leishmania major, UniProt E9AFX2) (assay: biochemical). Conditions: not given.
T1 sequence (E9AFX2 1-338): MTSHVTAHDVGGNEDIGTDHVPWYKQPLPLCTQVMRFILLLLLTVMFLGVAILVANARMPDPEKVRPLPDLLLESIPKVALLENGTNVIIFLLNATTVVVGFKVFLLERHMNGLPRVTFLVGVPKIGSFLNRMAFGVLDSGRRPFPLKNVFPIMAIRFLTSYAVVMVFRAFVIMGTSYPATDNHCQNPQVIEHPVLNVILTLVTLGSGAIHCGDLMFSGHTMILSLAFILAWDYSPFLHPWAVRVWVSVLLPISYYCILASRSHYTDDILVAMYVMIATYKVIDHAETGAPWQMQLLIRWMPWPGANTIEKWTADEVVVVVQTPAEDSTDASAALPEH
Type: biochemical
Design: inhibition: dose or concentration left out as unconfirmed

Row | Compound | 20mM inhibition LmjIPCS [%]
1 | C[C@@H](N)[C@@H](O)c1ccccc1 [1S,2R-PHENYLPROPANOLAMINE] | 19
2 | CC(=O)N[C@@H]1[C@@H](O)[C@H](O)[C@@H](CO)O[C@H]1O [ACETYLGLUCOSAMINE] | -19
3 | CCCCCCc1ccc(O)cc1O.Nc1c2ccccc2nc2ccccc12 [ACRISORCIN] | 30
4 | NC(CO)C(=O)NNCc1ccc(O)c(O)c1O (stereo not drawn) [BENSERAZIDE] | 43
5 | Nc1c2c(nc3ccccc13)CCCC2 [9-AMINO-1,2,3,4-TETRAHYDROACRIDINE] | 13
6 | O=C(/C=C/c1ccc(O)c(O)c1)OCCc1ccccc1 [PHENETHYL CAFFEATE (CAPE)] | 39
7 | COc1cc2c(cc1O)CCNC2C (stereo not drawn) [SALSOLINE] | 12
8 | CC(C)Cn1c(=O)n(C)c(=O)c2[nH]cnc21 [3-ISOBUTYL-1-METHYLXANTHINE] | 11
9 | OC(c1cc(C(F)(F)F)nc2c(C(F)(F)F)cccc12)C1CCCCN1 (stereo not drawn) [MEFLOQUINE] | 49
10 | O=C(O)c1cc(O)c2c(c1)[C@H]([C@H]1c3cc(C(=O)O)cc(O)c3C(=O)c3c(O[C@@H]4O[C@H](CO)[C@@H](O)[C@H](O)[C@H]4O)cccc31)c1cccc(O[C@@H]3O[C@H](CO)[C@@H](O)[C@H](O)[C@H]3O)c1C2=O [SENNOSIDE A] | 62
11 | CC[C@H](C)C(=O)O[C@H]1C[C@@H](C)C=C2C=C[C@H](C)[C@H](CC[C@@H]3C[C@@H](O)CC(=O)O3)[C@H]21 [LOVASTATIN] | 41
12 | CC[C@@]1(O)C[C@H](O[C@H]2C[C@H](N(C)C)[C@H](O)[C@H](C)O2)c2c(cc3c(c2O)C(=O)c2c(O)cccc2C3=O)[C@H]1C(=O)OC [AKLAVINE] | 59

Same assay, conditions: NINDS set screen, single concentration printed as 20mM

Row | 20mM inhibition LmjIPCS [%] | Compound
13 | 65 | CC(C)(C)CC(C)(C)c1ccc(O)c(Cc2ccc(Cl)cc2Cl)c1 [CLOFOCTOL]
14 | 47 | NC(Cc1c[nH]cn1)C(=O)Nc1ccc2ccccc2c1 (stereo not drawn)

Same assay, conditions: NINDS set screen; read-out: inhibition LmjIPCS

Row | inhibition [%] | Compound
15 | -14 | O=C(O)c1nc2cc(Cl)c(Cl)cc2nc1O

Same assay, conditions: read-out: 20mM inhibition LmjIPCS

Row | Compound | inhibition at 20000 µM [%]
16 | C[N+](C)(C)CCOP(=O)(O)OP(=O)([O-])OC[C@H]1O[C@@H](n2ccc(N)nc2=O)[C@H](O)[C@@H]1O [CITICOLINE] | 0.108
17 | CCN(CC)CC(=O)Nc1c(C)cccc1C [LIDOCAINE] | 2.47
18 | c1ccc2c(c1)sc1ccccc12 [DIBENZOTHIOPHENE] | 32
19 | O[C@@H]1CCCC[C@H]1N1CCC(c2ccccc2)CC1 (racemic) [VESAMICOL] | 14
20 | Sc1nc2ccccc2s1 [2-MERCAPTOBENZOTHIAZOLE] | 24
21 | Cc1[nH]ccc2c1[nH]c1cc(=O)ccc12 [HARMOL] | 15
22 | COc1ccc(C(=O)O[C@H]2CC[C@@]3(C)[C@@H]4CC[C@H]5[C@]6(O)C[C@H](O)[C@@]7(O)[C@@H](CN8C[C@@H](C)CC[C@H]8[C@@]7(C)O)[C@]6(O)C[C@@]53O[C@]24O)cc1OC [VERATRIDINE] | 11

Same assay, conditions: read-out: inhibition LmjIPCS

Row | inhibition [%] | Compound
23 | -2.11 | CCCC(=O)Nc1ccc(OCC(O)CNC(C)C)c(C(C)=O)c1 (stereo not drawn) [ACEBUTOLOL]
24 | 6 | COc1ccc2cc3[n+](cc2c1OC)CCc1cc2c(cc1-3)OCO2 [BERBERINE]
25 | 18 | COC(=O)Nc1nc2ccc(C(=O)c3ccccc3)cc2[nH]1 [MEBENDAZOLE]
26 | 28 | NCC(=O)CCC(=O)O [AMINOLEVULINIC ACID]
27 | 5.47 | CC(=O)O[C@H]1C[C@@]2(C)[C@@H](C[C@@H](O)[C@H]3[C@@]4(C)CC[C@@H](O)[C@@H](C)[C@@H]4CC[C@@]32C)/C1=C(\CCC=C(C)C)C(=O)O [FUSIDIC ACID]
28 | -6 | O=C1C(CC[S+]([O-])c2ccccc2)C(=O)N(c2ccccc2)N1c1ccccc1 (stereo not drawn) [SULFINPYRAZONE]

Same assay, conditions: single concentration 20mM as printed; screening of NINDS set, sheet Screen 1

Row | 20mM inhibition LmjIPCS [%] | Compound
29 | 10 | CC(=O)[C@@]1(O)CC[C@H]2[C@@H]3C=C(Cl)C4=CC(=O)[C@@H]5C[C@@H]5[C@]4(C)[C@H]3CC[C@@]21C [CYPROTERONE]
30 | 7 | Cc1cn([C@H]2C[C@H](N=[N+]=[N-])[C@@H](CO)O2)c(=O)[nH]c1=O [ZIDOVUDINE [AZT]]
